Format in all cases: cell-based
Test [1] has as its system P. aeruginosa isolates that overproduced AmpC. Briefly: Broth microdilution susceptibility of isolates overexpressing AmpC. As to conditions: P. aeruginosa (32). On the procedure:
(§1) Frozen-form broth microdilution panels were manufactured by JMI Laboratories and contained cation-adjusted Mueller-Hinton broth. Quality assurance was performed by sterility checks, colony counts, and testing CLSI recommended quality control reference strains.

Test [2] deals with Enterobacterales overproducing AmpC. The description is as above. As to the method: as §1
Test [3] relates to E. coli. Briefly: Broth microdilution MIC against characterized subsets of UTI E. coli (2018-2020). The note with it: for MIC90: read-out: MIC90. The source says:
Isolates were collected from medical centers in all 9 US Census Regions and tested by broth microdilution. MIC interpretation was based on CLSI. Isolates that met MIC criteria were subjected to genome sequencing, followed by screening of extended-spectrum b-lactamase (ESBL) genes and epidemiology typing (MLST).
A general note: In broth dilution the organism is exposed to a series of concentrations in liquid medium.

Where [4] appears, read: Escherichia coli, CTX-M a, read-out: MIC50.
Setting [5] is: Escherichia coli, ESBL (360), read-out: MIC50.
[6] abbreviates: Escherichia coli, Non-ESBL (2035), read-out: MIC50.
The mark [7] stands for this setting: Escherichia coli, Non-ESBL (2035).
[8] abbreviates: Enterobacterales (36), read-out: MIC50.
The mark [9] stands for this setting: Enterobacterales (36), read-out: MIC90.

The structures appear in SMILES notation. ≈ marks a conversion by molar mass, not a printed value. Read-outs that look alike come from different tables or passages of the source. Marks after values point to notes of the source that are not given here.

Turning to `C[C@@H](O)[C@H]1C(=O)N2C(C(=O)O)=C(SCCN=CN)C[C@H]12` [Imipenem], in test [1], the “CLSI %1” value turned out to be 0.0%, the “CLSI % R” value is listed as 3.1%, the “CLSI % S” value is 96.9% and the MIC range is 0.5 to 8 μ/ml. Further, in test [2], the MIC50 turned out to be 0.25 µg/mL (≈ 0.835 µM) and the MIC90 is 0.5 µg/mL (≈ 1.67 µM). In test [2] (Enterobacterales (36)), the “CLSI %1” value was 0.0%, the “CLSI % R” value is reported as 0.0%, the “CLSI % S” value is recorded as 100.0% and the MIC50 is 0.25 μ/ml. In addition, in test [2] (Enterobacterales (36)), the MIC90 is on record as 0.5 μ/ml and the MIC range is recorded as no more than 0.12 to 1 μ/ml.
As to `Cc1nnc(SCC2=C(C(=O)O)N3C(=O)[C@@H](NC(=O)Cn4cnnn4)[C@H]3SC2)s1` [CFZ, cefazolin], the “% susceptible by CLSI M100 criteria” value is 0.0% in test [3] (CTX-M a), 0.6% in test [3] (ESBL (360)) and 96.4% in test [3] (Non-ESBL (2035)). Further, the MIC50 in test [3] (setting [4]) is greater than 32 µg/mL; in test [3] (setting [5]), greater than 32 µg/mL; in test [3] (setting [6]) it was 2 µg/mL (≈ 4.4 µM). For the same compound, the MIC90 in test [3] (Escherichia coli, CTX-M a) was greater than 32 µg/mL; in test [3] (Escherichia coli, ESBL (360)) it was greater than 32 µg/mL; in test [3] (setting [7]) it was 8 µg/mL (≈ 17.6 µM).
As to `CN(C)[C@@H]1C(O)=C(C(N)=O)C(=O)[C@@]2(O)C(O)=C3C(=O)c4c(O)cccc4[C@@](C)(O)[C@H]3C[C@@H]12` [Tetracycline], in test [2] (Enterobacterales (36)), the “CLSI %1” value was 5.6%, the “CLSI % R” value was 44.4% and the “CLSI % S” value is recorded as 50.0%. The MIC50 in test [2] (setting [8]) amounted to 4 µg/mL (≈ 9 µM). For the same compound, the MIC90 in test [2] (setting [9]) was greater than 16 µg/mL.
In the case of `CN(C)c1cc(NC(=O)CNC(C)(C)C)c(O)c2c1C[C@H]1C[C@H]3[C@H](N(C)C)C(O)=C(C(N)=O)C(=O)[C@@]3(O)C(O)=C1C2=O` [Tigecycline], in test [2], the MIC50 amounted to 0.25 µg/mL (≈ 0.427 µM) and the MIC90 is 1 µg/mL (≈ 1.71 µM). Moreover, in test [2] (Enterobacterales (36)), the “CLSI %1” value was determined as 5.6%, the “CLSI % R” value was found to be 0.0%, the “CLSI % S” value is 94.4^d % and the MIC range was no more than 0.06 to 4 μ/ml.
Regarding `C[C@@H](O)[C@H]1C(=O)N2C(C(=O)OCOC(=O)C(C)(C)C)=C(SC3CN(C4=NCCS4)C3)[C@H](C)[C@H]12` [Tebipenem pivoxil], the MIC50 in test [3] was 0.03/- (-) μg/mL.
For `CO/N=C(\C(=O)N[C@@H]1C(=O)N2C(C(=O)[O-])=C(C[N+]3(C)CCCC3)CS[C@H]12)c1csc(N)n1` [Cefepime], in test [1], the “CLSI %1” value turned out to be 40.6%, the “CLSI % R” value amounted to 12.5% and the “CLSI % S” value is recorded as 46.9%. Further, in test [2], the MIC50 was 0.5 µg/mL (≈ 1.04 µM) and the MIC90 amounted to 128 µg/mL (≈ 266 µM).
Turning to `C[C@H]1[C@H](NC(=O)/C(=N\OC(C)(C)C(=O)O)c2csc(N)n2)C(=O)N1S(=O)(=O)O` [Aztreonam], in test [1], the “CLSI %1” value is recorded as 31.2%, the “CLSI % R” value worked out at 50.0% and the “CLSI % S” value turned out to be 18.8%. Besides, in test [2] (Enterobacterales (36)), the “CLSI %1” value is 14.3%, the “CLSI % R” value came to 54.3% and the “CLSI % S” value came out at 31.4%. Moreover, the MIC50 in test [2] (setting [8]) was greater than 16 µg/mL. Besides, the MIC90 in test [2] (setting [9]) is greater than 16 µg/mL.
On to `CO/N=C(\C(=O)N[C@@H]1C(=O)N2C(C(=O)O)=C(CSc3nc(=O)c(=O)[nH]n3C)CS[C@H]12)c1csc(N)n1` [Ceftriaxone, ceftriaxone], for which the MIC50 in test [2] was greater than 8 µg/mL; in test [3] (setting [4]) it was greater than 8 µg/mL; in test [3] (Escherichia coli, DHA(7), read-out: MIC50), 2 µg/mL (≈ 3.61 µM); in test [3] (setting [5]), greater than 8 µg/mL; in test [3] (setting [6]), no more than 0.06 µg/mL. Further, the MIC90 was greater than 8 µg/mL in test [2]; greater than 8 µg/mL in test [3] (Escherichia coli, CTX-M a); greater than 8 µg/mL in test [3] (Escherichia coli, ESBL (360)); 0.12 µg/mL (≈ 0.216 µM) in test [3] (setting [7]). Also, the “CLSI %1” value in test [2] (Enterobacterales (36)) is given as 13.9%. The “CLSI % R” value in test [2] (Enterobacterales (36)) was found to be 63.9%. In addition, in test [2] (Enterobacterales (36)), the “CLSI % S” value was determined as 22.2%. Also, the “% susceptible by CLSI M100 criteria” value in test [3] (CMYb (33)) was 0.0%; in test [3] (CTX-M a), 0.0%; in test [3] (DHA(7)), 28.6%; in test [3] (ESBL (360)), 6.4%; in test [3] (Non-ESBL (2035)), 100%; in test [3] (Non-ST131 (203)) it was 37.9%. The “% susceptible by CLSI M100 criteria” value in test [3] (ST131 (222)) was determined as 20.3%.

These data come from patent publication US12048691B2 (SPERO THERAPEUTICS, INC., priority 2020, dated 2024).
